Experimental data: patent US20050130232A1, “Methods of screening for compounds that modulate hormone receptor activity” (Allergan, Inc., priority 2001, published 2005)

Legend:
[1] = target: T1, protein kinase A activity associated with RXRα (Homo sapiens, UniProt P19793); assay: Protein kinase A activity in anti-Flag immunoprecipitates of PH-RXRα or RXRα transfected HEK 293 cells, synthetic peptide substrate; format: cell-based; conditions: Flag-RXRα lacking pleckstrin homology domain, 10^-7 M, substrate LRRASLG, vs control vehicle
T1 sequence (P19793 1-462): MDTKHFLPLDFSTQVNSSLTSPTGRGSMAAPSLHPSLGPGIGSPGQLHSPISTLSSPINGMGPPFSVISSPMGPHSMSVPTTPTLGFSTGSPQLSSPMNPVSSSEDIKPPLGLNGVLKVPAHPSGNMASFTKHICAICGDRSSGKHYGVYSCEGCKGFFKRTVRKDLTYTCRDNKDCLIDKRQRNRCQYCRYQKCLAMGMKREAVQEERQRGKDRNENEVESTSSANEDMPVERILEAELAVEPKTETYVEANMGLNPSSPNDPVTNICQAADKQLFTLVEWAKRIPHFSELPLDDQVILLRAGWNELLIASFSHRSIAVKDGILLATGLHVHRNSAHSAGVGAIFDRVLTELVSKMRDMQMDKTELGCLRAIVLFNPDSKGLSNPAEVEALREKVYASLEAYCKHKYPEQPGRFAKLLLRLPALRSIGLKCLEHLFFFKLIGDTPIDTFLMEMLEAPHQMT
Description: 293 cells were transfected with PH-RXRα. Sample 1: 0.1% DMSO (10 minutes). […] Sample 3: 0.1% DMSO (30 minutes).
Sample 1: 0.1% DMSO (10 minutes). […] Sample 3: 0.1% DMSO (30 minutes). […] Sample 5: No immunoprecipitate.
Sample 1: 0.1% DMSO. […] Sample 3: 0.1% DMSO with PKA inhibitor. […] Sample 5: 0.1% DMSO.
Following immunoprecipitation with anti-Flag antibody, the synthetic PKA substrate, LRRASLG (SEQ ID NO: 59), was added to the immunoprecipitate along with γ-ATP.
HEK 293 were cultured and transfected essentially as described above. Immunoprecipitates were prepared using the anti-Flag antibody, M2, as described above. Assays for protein kinase A activity were performed as follows. Immunoprecipitated complexes were resuspended in 40 μl of Kinase Assay Buffer (30 mM Tris-HCl, pH 7.4 and 10 mM MgCl2). Kinase reactions were initiated by addition of 10 μl of 500 μM synthetic peptide LRRASLG (SEQ ID NO: 59) or […] (SEQ ID NO: 60) prepared by Upstate Biotechnology (Lake Placid, N.Y.) and addition of 50 μM [γ-^32P]ATP (10 μCi) to the immune-complexes. […]
Incorporated ^32P was separated from free label by applying the reaction mixture onto P81 phosphocellulose paper and subsequently washing the paper three times with 0.75% phosphoric acid and once with acetone. Protein kinase reaction samples were analyzed in a scintillation counter to determine the amount of ^32P-incorporation.

[2] = test system: protein kinase A activity associated with RXRα (Homo sapiens); assay: PKA activity in S293 cells overexpressing the catalytic subunit of PKA; format: cell-based
Description: Sample 1: No ligand; immunoprecipitation with beads only. […] Sample 3: No ligand; immunoprecipitation with anti-FLAG antibody. […] Sample 5: No ligand; immunoprecipitation with beads only. […] Sample 7: No ligand; immunoprecipitation with anti-PKA antibody.
S293 cells (HEK293 cells stably overexpressing RXRα) were transfected with the pFC-PKA expression vector encoding the catalytic subunit of protein kinase A and with Flag-tagged PH-RXRα essentially as described above. This commercially available expression vector expresses the catalytic subunit of murine protein kinase A under control of the CMV promoter (Stratagene; San Diego, Calif.).

RXRα = target: T2, RXRα (Homo sapiens, UniProt P19793); assay: In vivo metabolic labeling with [32P]orthophosphate of Flag-RXR transfected HEK 293 cells; format: cell-based; set-up: expressed in transfected cells; host or cells: HEK 293; conditions: [32P]orthophosphate labeling, ligand 10 minutes
T2 sequence (P19793 1-462): T1 sequence (P19793 1-462)
Description: (A) AGN194204-dependent protein kinase activity in Flag-RXR immunocomplexes, which were immunoprecipitated from transfected cells using antibody against the “Flag” epitope tag fused to the RXR receptor. […] Total cell lysates were immunoprecipitated with anti-Flag antibody (M2). Aliquots of the immunocomplexes were used for the in vitro kinase reaction with [γ-^32P]ATP and separated on SDS-PAGE. Phosphorylated proteins were detected by autoradiography (top panel). Additional aliquots of the immunocomplexes were subjected to immunoblotting with polyclonal anti-RXR antisera (D20; bottom panel). (B) Phosphoamino acid analysis. Flag-RXR and the 160-kDa protein were phosphorylated in vitro and separated on SDS-PAGE as described above, then transferred onto PVDF membrane, detected by autoradiography, and cut out for hydrolysis with acid (6 N HCl). The phosphorylated amino acids and standards (P-Ser, P-Thr, and P-Tyr) were separated by thin-layer chromatography. Positions of the standards P-Ser, P-Thr, and P-Tyr were visualized by ninhydrin staining and are indicated by arrows. (C) In vivo metabolic labeling of transfected HEK 293 cells. […] Cells were washed with phosphate-free medium and starved for 90 minutes before incubation with [^32P]orthophosphate for another 4 hours. […] Phosphorylated proteins were detected by autoradiography. […]

[3] = target: T3, RXRα phosphorylation by protein kinase A (Homo sapiens, UniProt P19793); assay: Phosphorylation of immunoprecipitated RXRα by purified PKA; format: biochemical; conditions: cells incubated with 10^-7 M ligand
T3 construct: host or cells: HEK293
T3 sequence (P19793 1-462): T1 sequence (P19793 1-462)
Description: Left panel: Cells were immunoprecipitated with anti-FLAG antibody, and the immunoprecipitates analyzed by SDS-PAGE and blotting with anti-PKA antibody. Right panel: Cells were immunoprecipitated with anti-PKA antibody, and the immunoprecipitates analyzed by SDS-PAGE and blotting with anti-FLAG antibody. B. Phosphorylation of RXRα by PKA. […] PKA I and PKC I indicate inhibitors of PKA and PKC, respectively.
RXRα-containing immunoprecipitates prepared with anti-Flag antibody were incubated with purified catalytically active PKA (Upstate Biotechnology) and […]; in addition, protein kinase A inhibitor or protein kinase C inhibitor was added to some reactions as indicated. The kinase reaction products were analyzed by SDS-PAGE.

CC(/C=C/[C@@H]1C[C@]1(C)c1ccc2c(c1)C(C)(C)CCC2(C)C)=C\C(=O)O [AGN194204]
protein kinase A activity associated with RXRα [1]: significantly enhanced
protein kinase A activity in immunoprecipitates ([2]; immunoprecipitation with anti-Flag antibody): dramatic increase
protein kinase A activity in immunoprecipitates ([2]; immunoprecipitation with anti-PKA antibody): only a marginal ligand-dependent increase
in vivo phosphorylation of RXRα (RXRα): stimulated
extent of RXRα phosphorylation by purified PKA [3]: increased
